Test system: not given
Experiment: not given
Settings: not given

Row | melting point | SMILES
1 | 133 to 134 °C | Fc1ccc(-c2ccc(-c3ccnc(-c4c(F)cccc4F)n3)cc2)cc1Cl [Compound 2.1]
2 | 141 to 142 °C | Fc1cccc(F)c1-c1nccc(-c2ccc(-c3ccc(C(F)(F)F)cc3)cc2)n1 [Compound 2.2, 2-(2,6-difluorophenyl)-4-(4′-trifluoromethylbiphenyl-4-yl)-pyrimidine]
3 | 102 to 103 °C | Fc1cccc(F)c1-c1nccc(-c2ccc(-c3ccc(OC(F)(F)F)cc3)cc2)n1 [Compound 2.3]
4 | 116 to 126 °C | Fc1cccc(F)c1-c1nccc(-c2ccc(-c3cc(Cl)cc(Cl)c3)cc2)n1 [Compound 2.5]
5 | 134 to 140 °C | Fc1cccc(F)c1-c1nccc(-c2ccc(-c3ccc(Cl)c(Cl)c3)cc2)n1 [Compound 2.6]
6 | 258 to 259 °C | Fc1cccc(F)c1-c1nccc(-c2ccc(-c3ccc(-c4ccccc4)cc3)cc2)n1 [Compound 2.7]
7 | 145 to 146 °C | Fc1ccc(-c2ccc(-c3ccnc(-c4c(F)cccc4F)n3)cc2)cc1 [Compound 2.8]
8 | 86 to 87 °C | Fc1cccc(F)c1-c1nccc(-c2ccc(-c3ccc(Cl)cc3Cl)cc2)n1 [Compound 2.9]
9 | 82 to 83 °C | Fc1cccc(F)c1-c1nccc(-c2ccc(-c3cccc(Cl)c3)cc2)n1 [Compound 2.10]
10 | 167 to 168 °C | Fc1cccc(F)c1-c1nccc(-c2ccc(-c3ccc(Cl)cc3)cc2)n1 [Compound 2.11]
11 | 179 to 180 °C | Fc1cccc(F)c1-c1nccc(-c2ccc(-c3ccccc3C(F)(F)F)cc2)n1 [Compound 2.12]
12 | 146 to 148 °C | Fc1cccc(F)c1C1N=CC=C(c2ccc(Br)cc2)N1Cl (stereo not drawn) [Compound 3.354, 4-(4-bromophenyl)-2-(2,6-difluorophenyl)-3-chloropyrimidine]
13 | 146 to 148 °C | N#CN1C(c2ccc(Br)cc2)=CC=NC1c1c(F)cccc1F (stereo not drawn) [Compound 3.355, 4-(4-bromophenyl)-3-cyano-2-(2,6-difluorophenyl)-pyrimidine]

Second part, the compound before the results:

Row | SMILES | melting point
14 | Fc1cccc(F)c1-c1ncc(-c2ccc(-c3ccc(C(F)(F)F)cc3)cc2)cn1 [Compound 1.2] | 252 to 254 °C
15 | FC(F)(F)c1ccc(-c2ccc(-c3cnc(-c4c(Cl)cccc4Cl)nc3)cc2)cc1 [Compound 1.3] | 207 to 208 °C
16 | FC(F)(F)Oc1ccc(-c2ccc(-c3cnc(-c4c(Cl)cccc4Cl)nc3)cc2)cc1 [Compound 1.4] | 179 to 181 °C
17 | Clc1ccc(-c2ccc(-c3cnc(-c4c(Cl)cccc4Cl)nc3)cc2)cc1Cl [Compound 1.6] | 224 to 226 °C
18 | COc1ccc(-c2ccc(-c3cnc(-c4c(Cl)cccc4Cl)nc3)cc2)cc1 [Compound 1.7] | 242 to 244 °C
19 | Clc1ccc(-c2ccc(-c3cnc(-c4c(Cl)cccc4Cl)nc3)cc2)cc1 [Compound 1.8] | 205 to 220 °C
20 | Clc1cc(Cl)cc(-c2ccc(-c3cnc(-c4c(Cl)cccc4Cl)nc3)cc2)c1 [Compound 1.9] | > 220 °C
21 | CC(C)(C)c1ccc(-c2ccc(-c3cnc(-c4c(Cl)cccc4Cl)nc3)cc2)cc1 [Compound 1.10] | 200 to 202 °C
22 | Fc1ccc(-c2ccc(-c3cnc(-c4c(F)cccc4Cl)nc3)cc2)cc1Cl [Compound 1.11] | 186 to 189 °C
23 | Fc1cccc(Cl)c1-c1ncc(-c2ccc(-c3ccc(OC(F)(F)F)cc3)cc2)cn1 [Compound 1.12] | 160 to 163 °C
24 | Fc1cccc(Cl)c1-c1ncc(-c2ccc(-c3ccc(Cl)c(Cl)c3)cc2)cn1 [Compound 1.13] | 196 to 199 °C
25 | Fc1cccc(Cl)c1-c1ncc(-c2ccc(-c3cccc(C(F)(F)F)c3)cc2)cn1 [Compound 1.14] | 187 to 190 °C
26 | COc1ccc(-c2ccc(-c3cnc(-c4c(F)cccc4Cl)nc3)cc2)cc1 [Compound 1.15] | 176 to 179 °C
27 | Fc1cccc(F)c1-c1ncc(-c2ccc(-c3cccc(C(F)(F)F)c3)cc2)cn1 [Compound 1.18] | 217 to 218 °C
28 | Fc1cccc(F)c1-c1ncc(-c2ccc(-c3ccc(OC(F)(F)F)cc3)cc2)cn1 [Compound 1.19, 2-(2,6-difluorophenyl)-5-(4′-trifluoromethoxybiphenyl-4-yl)-pyrimidine] | 215 to 216 °C
29 | COc1ccccc1-c1ccc(-c2cnc(-c3c(F)cccc3F)nc2)cc1 [Compound 1.20] | 150 to 151 °C
30 | Fc1cccc(F)c1-c1ncc(-c2ccc(-c3ccc(-c4ccccc4)cc3)cc2)cn1 [Compound 1.22] | > 260 °C

Row | SMILES | melting point
31 | Fc1ccc(-c2ccc(-c3cnc(-c4c(F)cccc4F)nc3)cc2)cc1 [Compound 1.23] | 212 to 213 °C
32 | Fc1cccc(F)c1-c1ncc(-c2ccc(-c3ccccc3C(F)(F)F)cc2)cn1 [Compound 1.24] | 100 to 102 °C
33 | Fc1cccc(F)c1-c1ncc(-c2ccc(-c3ccc(Cl)cc3)cc2)cn1 [Compound 1.25] | 220 to 222 °C
34 | Fc1cccc(F)c1-c1ncc(-c2ccc(-c3cccc(Cl)c3)cc2)cn1 [Compound 1.37] | 178 to 179 °C
35 | CCOc1nc(-c2c(F)cccc2F)ncc1-c1ccc(-c2ccc(OC(F)(F)F)cc2)cc1 [Compound 1.58] | 146 to 147 °C
36 | CCOc1nc(-c2c(F)cccc2F)ncc1-c1ccc(-c2ccc(C(F)(F)F)cc2)cc1 [Compound 1.59] | 170 to 172 °C
37 | CCOc1nc(-c2c(F)cccc2F)ncc1-c1ccc(-c2cc(Cl)cc(Cl)c2)cc1 [Compound 1.60] | 154 to 155 °C
38 | CCNc1nc(-c2c(F)cccc2F)ncc1-c1ccc(-c2ccc(C(F)(F)F)cc2)cc1 [Compound 1.67] | 189 to 190 °C
39 | CCNc1nc(-c2c(F)cccc2F)ncc1-c1ccc(-c2cc(Cl)cc(Cl)c2)cc1 [Compound 1.68] | 202 to 203 °C
40 | CN(C)c1nc(-c2c(F)cccc2F)ncc1-c1ccc(-c2ccc(OC(F)(F)F)cc2)cc1 [Compound 1.69] | 146 to 147 °C
41 | CN(C)c1nc(-c2c(F)cccc2F)ncc1-c1ccc(-c2ccc(C(F)(F)F)cc2)cc1 [Compound 1.70] | 166 to 168 °C
42 | CN(C)c1nc(-c2c(F)cccc2F)ncc1-c1ccc(-c2cc(Cl)cc(Cl)c2)cc1 [Compound 1.71] | 200 to 202 °C
43 | CCSc1nc(-c2c(F)cccc2F)ncc1-c1ccc(-c2ccc(OC(F)(F)F)cc2)cc1 [Compound 1.72] | 127 to 128 °C
44 | CCSc1nc(-c2c(F)cccc2F)ncc1-c1ccc(-c2ccc(C(F)(F)F)cc2)cc1 [Compound 1.73] | 145 to 146 °C
45 | CCSc1nc(-c2c(F)cccc2F)ncc1-c1ccc(-c2cc(Cl)cc(Cl)c2)cc1 [Compound 1.74] | 154 to 156 °C
46 | Fc1cccc(F)c1-c1ncc(-c2ccc(Br)cc2)cn1 [Compound P1.3, 5-(4-bromophenyl)-2-(2,6-difluorophenyl)-pyrimidine] | 193 to 194 °C
47 | Fc1cccc(F)c1-c1nccc(-c2ccc(Br)cc2)n1 [Compound P1.5, 4-(4-bromophenyl)-2-(2,6-difluorophenyl)-pyrimidine] | 130 to 131 °C

Test system: Heliothis virescens
Experiment: Activity against Heliothis virescens
Type: in vivo
Settings: young soya plants sprayed with 100 ppm active ingredient, first-stage caterpillars, 6 days later
Protocol: Young soya plants are sprayed with an aqueous emulsion spray mixture containing 100 ppm of active ingredient, when the spray coating has dried on they are colonised with 10 caterpillars of the first stage of Heliothis virescens and then placed in a plastic container. The percentage reduction of the population and of the feeding damage (% response) is determined 6 days later by comparing the total number of dead caterpillars and the feeding damage on the treated plants with those on the untreated plants.

Row | SMILES | efficacy: percentage reduction of the population and of the feeding damage (% response)
48 | Fc1cccc(Cl)c1-c1ncc(-c2ccc(-c3ccc(C(F)(F)F)cc3)cc2)cn1 [Compound 1.17] | over 80%

Reference: patent publication US6686469B2, “Pesticidal pyrimidine-derivatives” (Novartis Animal Health US, Inc., priority 1999, dated 2004)
